Results: the supplement of paper PMC13380429

Assays:
[1] = system: A549-ACE2 infected with SARS-CoV-2; test: cell count relative to DMSO; higher = less toxic; settings: 24 h
Caco-2 [2] = test: cell viability relative to DMSO; higher = less toxic; settings: 72 h
Calu-3 [3] = test: as above; settings: 72 h
HepG2 [4] = test: as above; settings: 72 h
U2OS [5] = test: as above; settings: 72 h
Vero E6 [6] = test: as above; settings: 72 h
[7] = system: A549-ACE2 infected with SARS-CoV-2; test: SARS-CoV-2 infection rate relative to DMSO; higher = more infection; settings: 24 h
A549-ACE2 [8] = test: phospholipidosis EC50; higher = less potent phospholipidosis inducer
A549-ACE2 [9] = test: drug-induced phospholipidosis relative to tamoxifen; higher = more phospholipidosis
[10] = system: A549-ACE2 infected with SARS-CoV-2; test: morphology score (similarity to uninfected cells); higher = more like uninfected cells; settings: 24 h
Caco-2 [11] = test: relative viability EC50 (midpoint between 100% and the lowest measured viability); higher = less toxic; settings: 72 h
Calu-3 [12] = test: as above; settings: 72 h
U2OS [13] = test: as above; settings: 72 h
Vero E6 [14] = test: as above; settings: 72 h
Caco-2 [15] = test: drug sensitivity score (DSS) for viability; higher = more toxic; extreme values may be limits of the assay; settings: 72 h
Calu-3 [16] = test: as above; settings: 72 h
HepG2 [17] = test: as above; settings: 72 h
U2OS [18] = test: as above; settings: 72 h
Vero E6 [19] = test: as above; settings: 72 h

CC1(N2CCC(n3c([C@@H]4CCCNC4)nc4ccccc43)CC2)CCCCCCC1 [MCOPPB]
Settings | SARS-CoV-2 infection rate [%] | cell count [%] | cell viability [%] | morphology score | phospholipidosis EC50 [µM]
A549-ACE2 [8], 24 h | – | – | – | – | 1.64
A549-ACE2 [8], 48 h | – | – | – | – | 3.3
A549-ACE2 [8], 72 h | – | – | – | – | 4.88
Caco-2 [2], 1 nM | – | – | 111 | – | –
Caco-2 [2], 10 nM | – | – | 105 | – | –
Caco-2 [2], 100 nM | – | – | 93.5 | – | –
Caco-2 [2], 1000 nM | – | – | 100 | – | –
Caco-2 [2], 10000 nM | – | – | 89.3 | – | –
Calu-3 [3], 1 nM | – | – | 99.2 | – | –
Calu-3 [3], 10 nM | – | – | 99.8 | – | –
Calu-3 [3], 100 nM | – | – | 91.6 | – | –
Calu-3 [3], 1000 nM | – | – | 99 | – | –
Calu-3 [3], 10000 nM | – | – | 7.3 | – | –
HepG2 [4], 1 nM | – | – | 94 | – | –
HepG2 [4], 10 nM | – | – | 100 | – | –
HepG2 [4], 100 nM | – | – | 99.5 | – | –
HepG2 [4], 1000 nM | – | – | 87.5 | – | –
HepG2 [4], 10000 nM | – | – | 55.1 | – | –
U2OS [5], 1 nM | – | – | 98.6 | – | –
U2OS [5], 10 nM | – | – | 104 | – | –
U2OS [5], 100 nM | – | – | 98.6 | – | –
U2OS [5], 1000 nM | – | – | 100 | – | –
U2OS [5], 10000 nM | – | – | 91.4 | – | –
Vero E6 [6], 1 nM | – | – | 101 | – | –
Vero E6 [6], 10 nM | – | – | 101 | – | –
Vero E6 [6], 100 nM | – | – | 106 | – | –
Vero E6 [6], 1000 nM | – | – | 99 | – | –
Vero E6 [6], 10000 nM | – | – | 98.9 | – | –
[1], 0.3 µM | – | 106 | – | – | –
[1], 3 µM | – | 115 | – | – | –
[1], 10 µM | – | 119 | – | – | –
[1], 30 µM | – | 120 | – | – | –
[7], 0.3 µM | 89 | – | – | – | –
[7], 3 µM | 23 | – | – | – | –
[7], 10 µM | 16 | – | – | – | –
[7], 30 µM | 27 | – | – | – | –
[10], 0.3 µM | – | – | – | 0.38 | –
[10], 3 µM | – | – | – | 0.73 | –
[10], 10 µM | – | – | – | 0.28 | –
[10], 30 µM | – | – | – | -0.07 | –

drug-induced phospholipidosis [%], A549-ACE2 [9]
Settings | 0.3 µM | 0.833333 µM | 3.33333 µM | 6.66667 µM | 10 µM | 30 µM
24 h | 5.09 | 34 | 89.2 | 113 | 138 | 112
48 h | 5.47 | 17.9 | 70.6 | 117 | 145 | 111
72 h | 4.22 | 12.1 | 45 | 98.9 | 137 | 141

Settings | drug sensitivity score | relative viability EC50 [µM]
Caco-2 [11] | – | > 10
Caco-2 [15] | 0 | –
Calu-3 [12] | – | 3.09
Calu-3 [16] | 5.3 | –
HepG2 [17] | 4.2 | –
U2OS [13] | – | > 10
U2OS [18] | 0 | –
Vero E6 [14] | – | > 10
Vero E6 [19] | 0 | –

C[C@@H]1CN(CC(=O)Nc2ccc3c(c2)Cc2cccc(-c4cc(=O)cc(N5CCOCC5)o4)c2S3)C[C@H](C)O1
Settings | SARS-CoV-2 infection rate [%] | cell count [%] | cell viability [%] | morphology score | phospholipidosis EC50 [µM]
A549-ACE2 [8], 72 h | – | – | – | – | 20
Caco-2 [2], 1 nM | – | – | 97.2 | – | –
Caco-2 [2], 10 nM | – | – | 103 | – | –
Caco-2 [2], 100 nM | – | – | 101 | – | –
Caco-2 [2], 1000 nM | – | – | 103 | – | –
Caco-2 [2], 10000 nM | – | – | 47.3 | – | –
Calu-3 [3], 1 nM | – | – | 99.4 | – | –
Calu-3 [3], 10 nM | – | – | 104 | – | –
Calu-3 [3], 100 nM | – | – | 99.4 | – | –
Calu-3 [3], 1000 nM | – | – | 105 | – | –
Calu-3 [3], 10000 nM | – | – | 99.3 | – | –
HepG2 [4], 1 nM | – | – | 105 | – | –
HepG2 [4], 10 nM | – | – | 101 | – | –
HepG2 [4], 100 nM | – | – | 97.8 | – | –
HepG2 [4], 1000 nM | – | – | 96 | – | –
HepG2 [4], 10000 nM | – | – | 54.3 | – | –
U2OS [5], 1 nM | – | – | 102 | – | –
U2OS [5], 10 nM | – | – | 104 | – | –
U2OS [5], 100 nM | – | – | 95.7 | – | –
U2OS [5], 1000 nM | – | – | 98.7 | – | –
U2OS [5], 10000 nM | – | – | 89.6 | – | –
Vero E6 [6], 1 nM | – | – | 103 | – | –
Vero E6 [6], 10 nM | – | – | 99.2 | – | –
Vero E6 [6], 100 nM | – | – | 103 | – | –
Vero E6 [6], 1000 nM | – | – | 104 | – | –
Vero E6 [6], 10000 nM | – | – | 80.9 | – | –
[1], 0.3 µM | – | 115 | – | – | –
[1], 3 µM | – | 103 | – | – | –
[1], 10 µM | – | 113 | – | – | –
[1], 30 µM | – | 104 | – | – | –
[7], 0.3 µM | 108 | – | – | – | –
[7], 3 µM | 98 | – | – | – | –
[7], 10 µM | 62 | – | – | – | –
[7], 30 µM | 68 | – | – | – | –
[10], 0.3 µM | – | – | – | 0.15 | –
[10], 3 µM | – | – | – | 0.09 | –
[10], 10 µM | – | – | – | 0.57 | –
[10], 30 µM | – | – | – | 0.45 | –

drug-induced phospholipidosis [%], A549-ACE2 [9]
Settings | 0.3 µM | 0.833333 µM | 3.33333 µM | 6.66667 µM | 10 µM | 30 µM
24 h | -1.06 | -2.12 | -2.36 | 1.18 | 7.55 | 66.8
48 h | -1.36 | -2.9 | -1.74 | 0 | 6.05 | 52.4
72 h | -1.2 | -4.15 | -2.75 | 0.476 | 6.88 | 56.1

Settings | drug sensitivity score | relative viability EC50 [µM]
Caco-2 [11] | – | 3.48
Caco-2 [15] | 2.5 | –
Calu-3 [12] | – | > 10
Calu-3 [16] | 0 | –
HepG2 [17] | 3 | –
U2OS [13] | – | > 10
U2OS [18] | 0 | –
Vero E6 [14] | – | > 10
Vero E6 [19] | 0.4 | –
